Experimental data from patent US4289781A, “Anti-psychotic phthalimidine derivatives” (priority 1979, dated 1981).

Columns and labels:
[1] = test system: DA receptors in the brain; assay: Block of apomorphine induced stereotypies in rats (0-3 scale scoring); assay type: in vivo, Male Sprague-Dawley rats; conditions: i.p., 60 min prior to apomorphine hydrochloride 1 mg/kg s.c.; dose reducing strength of stereotypies by 50% over 60 min
From the text: There are several techniques available to study DA receptor blockade in the brain. One method is based on the ability of anti-psychotics to block the behavioural effects induced by the DA agonist apomorphine. Apomorphine produces a characteristic syndrome in rats and other species consisting of repetitive movements (stereotypies) and hyperactivity which appear to be due to activation of postsynaptic DA receptors in the brain (J Pharm. Pharmacol. 19, 627, 1967; J Neurol. Transm. 40, 97-113, 1977). The stereotypies (chewing, licking, biting) appear mainly to reflect action on DA receptors of the neostriatal system ([…]. Res., 11, 1, 1974) whereas the increased locomotion (hyperactivity) mainly appears to be due to activation of DA receptors in mesolimbic structures (nucleus olfactorium, nucleus accumbens), (J Pharm. Pharmacol. 25, 1003, 1973). Male Sprague-Dawley rats weighing 225-275 g were used. […] The compounds were injected 60 min prior to apomorphine hydrochloride (1 mg/kg) which was injected subcutaneously into the neck. […] Furthermore, apomorphine given s.c. also produced a very consistent hyperactivity. Directly after injection, the animals were placed in the cages, one in each cage. Scoring of the stereotypies were performed by two separate methods. The first scoring system was a modified version of the system introduced by Costall and Naylor (1973). The strength of the stereotypy was scored on a 0-3 scale as follows: |______________________________________ |Score Description of stereotyped behaviour. |______________________________________ |0 No change in behaviour compared to saline controls | No sedation. |1 Discontinuous sniffing. |2 Continuous sniffing. |3 Continuous sniffing. Chewing, biting and licking. |______________________________________ In the second system the number of animals displaying hyperactivity caused by apomorphine were scored. Each group consisted of 6-8 animals. Saline controls were always run simultaneously. […] The ED50 's were calculated from log dose-response curves by the method of least squares from 4-6 dose levels with 6-8 animals per dose level.

[2] = test system: DA receptors in the brain; assay: Block of apomorphine induced hyperactivity in rats (number of animals displaying hyperactivity); assay type: in vivo, Male Sprague-Dawley rats; conditions: i.p., 60 min prior to apomorphine hydrochloride 1 mg/kg s.c.; dose reducing number of animals showing hyperactivity by 50% over 60 min
From the text: There are several techniques available to study DA receptor blockade in the brain. One method is based on the ability of anti-psychotics to block the behavioural effects induced by the DA agonist apomorphine. Apomorphine produces a characteristic syndrome in rats and other species consisting of repetitive movements (stereotypies) and hyperactivity which appear to be due to activation of postsynaptic DA receptors in the brain (J Pharm. Pharmacol. 19, 627, 1967; J Neurol. Transm. 40, 97-113, 1977). The stereotypies (chewing, licking, biting) appear mainly to reflect action on DA receptors of the neostriatal system (J Phychiat. Res., 11, 1, 1974) whereas the increased locomotion (hyperactivity) mainly appears to be due to activation of DA receptors in mesolimbic structures (nucleus olfactorium, nucleus accumbens), (J Pharm. Pharmacol. 25, 1003, 1973).
Male Sprague-Dawley rats weighing 225-275 g were used. […] The compounds were injected 60 min prior to apomorphine hydrochloride (1 mg/kg) which was injected subcutaneously into the neck.
Directly after injection, the animals were placed in the cages, one in each cage. Scoring of the stereotypies were performed by two separate methods. The first scoring system was a modified version of the system introduced by Costall and Naylor (1973). The strength of the stereotypy was scored on a 0-3 scale as follows:
In the second system the number of animals displaying hyperactivity caused by apomorphine were scored. Each group consisted of 6-8 animals. Saline controls were always run simultaneously. ED50 's are in the first scoring system (0-3 scale), the doses which reduce the strength of the stereotypies by 50% over the observation period of 60 min. ED50 's of the second scoring system are the doses which reduce the number of animals showing hyperactivity by 50% over the observation period of 60 min. The ED50 's were calculated from log dose-response curves by the method of least squares from 4-6 dose levels with 6-8 animals per dose level.

[3] = in vivo; cited from earlier work
[4] = experimental animals; cited from earlier work

| SMILES | Stereotypies ED50 [1] | Hyperactivity ED50 [2] | extrapyramidal side effects [3] | catalepsy [4] |
| --- | --- | --- | --- | --- |
| O=C1c2ccc(Br)cc2CN1C1CCN(Cc2ccccc2)CC1 [Example 2, 2-(4-N-benzylpiperidyl)-5-bromo phthalimidine] | 17.5 µmol/kg | 14 µmol/kg |  |  |
| CCN1CCCC1CNC(=O)c1cc(S(N)(=O)=O)ccc1OC (stereo not shown) [Sulpiride] |  | 45 µmol/kg | weak extrapyramidal side effects | weak catalepsy |
| O=C1c2ccc(Cl)cc2CN1C1CCN(Cc2ccc(Cl)cc2)CC1 [Example 15, 5-chloro-2-[4-N-(4-chlorobenzyl)piperidyl)-phthalimidine] | 14 µmol/kg | 3.5 µmol/kg |  |  |
| O=C1c2ccc(F)cc2CN1C1CCN(Cc2ccccc2)CC1 [Example 1, 2-(4-N-benzylpiperidyl)-5-fluorophthalimidine] | 22.0 µmol/kg | 4.0 µmol/kg |  |  |
| O=C1c2ccc(Cl)cc2CN1C1CCN(Cc2ccccc2)CC1 [Example 3, 2-(4-N-benzylpiperidyl)-5-chloro phthalimidine] | 16.0 µmol/kg | 2.0 µmol/kg |  |  |
| Cc1ccc(CN2CCC(N3Cc4cc(Br)ccc4C3=O)CC2)cc1 [Example 14] | 6.5 µmol/kg | 1.7 µmol/kg |  |  |
| COc1ccc(CN2CCC(N3Cc4cc(Cl)ccc4C3=O)CC2)cc1 [Example 7, 5-chloro-2-[4-N-(4-methoxybenzyl)piperidyl]-phthalimidine] | 9.5 µmol/kg | 2.2 µmol/kg |  |  |
| Cc1ccc(CN2CCC(N3Cc4cc(Cl)ccc4C3=O)CC2)cc1 [Example 16, 5-chloro-2-[4-N-(4-methylbenzyl)piperidyl]-phthalimidine] | 9 µmol/kg | 0.9 µmol/kg |  |  |
| O=C1c2ccc(Br)cc2CN1C1CCN(Cc2ccc(Cl)cc2)CC1 [Example 11, 5-bromo-2-[4-N-(4-chlorobenzyl)-piperidyl]-phthalimidine] | 11 µmol/kg | 3.4 µmol/kg |  |  |
